Experimental findings from patent US20020137929A1, “1 - (3-heterocyclylphenyl) isothiourea, -isourea, -guanidine and -amidine herbicidal agents” (Intellectual Property Department, BASF Aktiengesellschaft, priority 1998, published 2002) are described below.

Assay [1] has as its system CHEAL (Lambsquarters, Common). Briefly: Preemergence herbicidal evaluation. As to conditions: rated 4-5 weeks after treatment. Format: in vivo, Chenopodium album. The source says:
(§1) Results of herbicide evaluation are expressed on a rating scale (0-9). The scale is based upon a visual observation of plant stand, vigor, malformation, size, chlorosis and overall plant appearance as compared with a control.
(§2) The preemergence herbicidal activity of the test compounds of the present invention is exemplified by the following tests in which the seeds of a variety of monocotyledonous and dicotyledonous plants are separately mixed with potting soil and planted on top of approximately one inch of soil in separate pint cups. After planting, the cups are sprayed with the selected aqueous acetone solution containing test compound in sufficient quantity to provide the equivalent of about 0.0156 to 0.500 kg per hectare of test compound per cup. The treated cups are then placed on greenhouse benches, watered and cared for in accordance with conventional greenhouse procedures. From four to five weeks after treatment, the tests are terminated and each cup is examined and rated according to the rating system provided in Example 37.
(§3) The compounds evaluated are reported by compound number given in Example 37.

In a further assay the test system is ECHCG (Barnyardgrass). Briefly: Postemergence herbicidal evaluation. Format: in vivo, Echinochloa crus-galli. As to conditions: postemergence. Here is the method: In the tests, seedling plants are grown in jiffy flats for about two weeks. The test compounds are dispersed in 50/50 acetone/water mixtures containing 0.5% TWEEN®20, a polyoxyethylene sorbitan monolaurate surfactant of Atlas Chemical Industries, in sufficient quantities to provide the equivalent of about 0.0156 kg to 0.500 kg per hectare of active compound when applied to the plants through a spray nozzle operating at 40 psi for a predetermined time. After spraying, the plants are placed on greenhouse benches and are cared for in accordance with conventional greenhouse procedures. From four to five weeks after treatment, the seedling plants are examined and rated according to the rating system set forth below. Where more than one test is involved for a given compound, the data are averaged.
Plant species employed in these evaluations are reported by header abbreviation, common name and scientific name.
as §1

The test system of another assay is CYPSE (Flatsedge). Briefly: Preemergence weed control under flooded paddy conditions. The assay is classed as in vivo, Cyperus serotinus. The conditions noted are these: rated 3-4 weeks after treatment. The procedure: as §1
(§4) Preemergence herbicidal activity under flooded paddy conditions is determined as follows: plant seeds or propagating organs are planted in the top 0.5 cm of silt loam soil in 32 oz. plastic containers with a diameter of 10.5 cm and no drainage holes. Water is added to these containers and maintained at 1.5 to 3 cm above the soil surface for the duration of the experiment. The test compounds are applied as aqueous/acetone mixtures 50/50 v/v pipetted directly into the flood water to give the equivalent of about 0.0313 to 0.500 kg/ha of active ingredient. The treated containers are placed on greenhouse benches and cared for in accordance with conventional greenhouse procedures. Three to four weeks after treatment, the test is terminated and each container is examined and herbicidal effect rated according to the rating system provided in Example 37. The compounds evaluated are reported by compound number given in Example 37.
(§5) Plant species employed in this example are reported by header abbreviation, common name and scientific name.

Assay [2] deals with ECHORC (Watergrass (Calif.)). The assay is described as above. As to conditions: rated 3-4 weeks after treatment. Format: in vivo, Echinochloa oryzoides. Here is the method:
as §1, §4, §5

For a further assay, the system named is ORYSAT (Rice, Tebonnet). Briefly: Preemergence herbicidal evaluation. The assay is classed as in vivo, Oryza sativa, (L.) Tebonnet. As to conditions: rated 4-5 weeks after treatment.
Excerpt: as §1, §2, §3

Regarding `COC(=O)C(Cc1ccc(Cl)cc1)N1C(=O)CSC1=Nc1cc(-n2c(=O)cc(C(F)(F)F)n(C)c2=O)c(F)cc1Cl` (racemic) [Compound 77, Methyl α-(p-chlorobenzyl)-2-{{2-chloro-5-[3,6-dihydro-3-methyl-2,6-dioxo-4-(trifluoromethyl)-1(2H)-pyrimidinyl]-4-fluorophenyl}imino}-4-oxo-3-thiazolidineacetate, DL-], the “Preemergence herbicidal rating CHEAL” value in assay [1] (rate 0.0156 kg/ha) is on record as 2.0; in assay [1] (rate 0.0313 kg/ha), 9.0; in assay [1] (rate 0.0625 kg/ha), 9.0; in assay [1] (rate 0.1250 kg/ha) it was 9.0; in assay [1] (rate 0.2500 kg/ha), 9.0. Moreover, the ECHCG herbicidal rating in the assay on ECHCG (Barnyardgrass) (rate 0.0158 kg/ha), with ECHCG (Barnyardgrass) (rate 0.0315 kg/ha) and in the assay with ECHCG (Barnyardgrass) (rate 0.0630 kg/ha) was 1.0 each time. Moreover, the “CYPSE herbicidal effect rating” value was determined as 0.0 in the assay on CYPSE (Flatsedge) (0.0313 kg/ha), 0.0 in the assay on CYPSE (Flatsedge) (0.0625 kg/ha), 0.0 with CYPSE (Flatsedge) (0.1250 kg/ha) and 4.0 in the assay with CYPSE (Flatsedge) (0.2500 kg/ha). Moreover, the “ECHORC herbicidal effect rating” value in assay [2] (0.0313 kg/ha), in assay [2] (0.0625 kg/ha), in assay [2] (0.1250 kg/ha) and in assay [2] (0.2500 kg/ha) was 9.0 each time. Also, the “Preemergence herbicidal rating ORYSAT” value in the assay with ORYSAT (Rice, Tebonnet) (rate 0.0156 kg/ha) came to 0.0; in the assay with ORYSAT (Rice, Tebonnet) (rate 0.0313 kg/ha) it was 0.0; with ORYSAT (Rice, Tebonnet) (rate 0.0625 kg/ha), 0.0; with ORYSAT (Rice, Tebonnet) (rate 0.1250 kg/ha), 0.0; with ORYSAT (Rice, Tebonnet) (rate 0.2500 kg/ha), 0.0.
As for `CC(C)COC(=O)CN1C(=O)CSC1=Nc1cc(-n2c(=O)cc(C(F)(F)F)n(C)c2=O)c(F)cc1Cl` [Compound 121, Isobutyl 2-{{2-chloro-5-[3,6-dihydro-3-methyl-2,6-dioxo-4-(trifluoromethyl)-1(2H)-pyrimidinyl]-4-fluorophenyl}imino}-4-oxo-3-thiazolidineacetate], the “Preemergence herbicidal rating CHEAL” value in assay [1] (rate 0.0156 kg/ha), in assay [1] (rate 0.0313 kg/ha), in assay [1] (rate 0.0625 kg/ha), in assay [1] (rate 0.1250 kg/ha) and in assay [1] (rate 0.2500 kg/ha) was 9.0 throughout. Further, the “Herbicidal rating ECHCG” value in the assay with ECHCG (Barnyardgrass) (rate 0.0156 kg/ha), in the assay with ECHCG (Barnyardgrass) (rate 0.0313 kg/ha) and in the assay on ECHCG (Barnyardgrass) (rate 0.0625 kg/ha) was 0.0 throughout. The “herbicidal effect rating, CYPSE” value with CYPSE (Flatsedge) (0.0313 kg/ha) is given as 2.0; with CYPSE (Flatsedge) (0.1250 kg/ha), 5.0; in the assay with CYPSE (Flatsedge) (0.2500 kg/ha), 5.0. In addition, the “herbicidal effect rating, ECHORC” value was determined as 4.0 in assay [2] (0.0313 kg/ha), 5.0 in assay [2] (0.0625 kg/ha), 6.0 in assay [2] (0.1250 kg/ha) and 6.0 in assay [2] (0.2500 kg/ha). For the same molecule, the “Preemergence herbicidal rating ORYSAT” value with ORYSAT (Rice, Tebonnet) (rate 0.0156 kg/ha) stood at 0.0; in the assay with ORYSAT (Rice, Tebonnet) (rate 0.0313 kg/ha), 0.0; in the assay with ORYSAT (Rice, Tebonnet) (rate 0.0625 kg/ha) it was 0.0; with ORYSAT (Rice, Tebonnet) (rate 0.1250 kg/ha), 4.0; with ORYSAT (Rice, Tebonnet) (rate 0.2500 kg/ha) it was 5.0.
With `COC(=O)[C@@H](Cc1ccccc1)N1C(=O)CSC1=Nc1cc(-n2c(=O)cc(C(F)(F)F)n(C)c2=O)c(F)cc1Cl` [Compound 74, Methyl α-benzyl-2-{{2-chloro-5-[3,6-dihydro-3-methyl-2,6-dioxo-4-(trifluoromethyl)-1(2H)-pyrimidinyl]-4-fluorophenyl}imino}-4-oxo-3-thiazolidineacetate, D-], the “Preemergence herbicidal rating CHEAL” value in assay [1] (rate 0.0156 kg/ha), in assay [1] (rate 0.0313 kg/ha), in assay [1] (rate 0.0625 kg/ha), in assay [1] (rate 0.1250 kg/ha) and in assay [1] (rate 0.2500 kg/ha) was 9.0 each time. Further, the ECHCG herbicidal rating in the assay with ECHCG (Barnyardgrass) (rate 0.0158 kg/ha), in the assay with ECHCG (Barnyardgrass) (rate 0.0315 kg/ha) and with ECHCG (Barnyardgrass) (rate 0.0630 kg/ha) was 1.0 each time. Besides, the “CYPSE herbicidal effect rating” value in the assay with CYPSE (Flatsedge) (0.0313 kg/ha) is reported as 0.0; in the assay on CYPSE (Flatsedge) (0.0625 kg/ha) it was 5.0; in the assay with CYPSE (Flatsedge) (0.1250 kg/ha), 5.0; in the assay on CYPSE (Flatsedge) (0.2500 kg/ha), 9.0. Further, the “ECHORC herbicidal effect rating” value in assay [2] (0.0313 kg/ha) worked out at 7.0; in assay [2] (0.0625 kg/ha) it was 9.0; in assay [2] (0.1250 kg/ha), 9.0; in assay [2] (0.2500 kg/ha), 9.0. The “Preemergence herbicidal rating ORYSAT” value is reported as 0.0 with ORYSAT (Rice, Tebonnet) (rate 0.0156 kg/ha); 0.0 in the assay on ORYSAT (Rice, Tebonnet) (rate 0.0313 kg/ha); 1.0 in the assay with ORYSAT (Rice, Tebonnet) (rate 0.0625 kg/ha); 1.0 in the assay on ORYSAT (Rice, Tebonnet) (rate 0.1250 kg/ha); 1.0 in the assay with ORYSAT (Rice, Tebonnet) (rate 0.2500 kg/ha).
Turning to `CC(C)N1C(=O)CSC1=Nc1cc(-n2c(=O)cc(C(F)(F)F)n(C)c2=O)c(F)cc1Cl` [Compound 164, 3-{4-Chloro-2-fluoro-5-[(3-isopropyl-4-oxo-2-thiazolidinylidene)amino]phenyl}-1-methyl-6-(trifluoromethyl)-2,4(1H,3H)-pyrimidinedione], the “Preemergence herbicidal rating CHEAL” value in assay [1] (0.0156 kg/ha), in assay [1] (0.0313 kg/ha), in assay [1] (0.0625 kg/ha), in assay [1] (0.1250 kg/ha), in assay [1] (0.2500 kg/ha) and in assay [1] (0.5000 kg/ha) was 9.0 each time. Moreover, the “Herbicidal rating ECHCG” value in the assay with ECHCG (Barnyardgrass) (rate 0.0156 kg/ha) amounted to 2.0; in the assay on ECHCG (Barnyardgrass) (rate 0.0313 kg/ha), 3.0; in the assay with ECHCG (Barnyardgrass) (rate 0.0625 kg/ha), 3.0; in the assay on ECHCG (Barnyardgrass) (rate 0.1250 kg/ha), 3.0. Also, the “herbicidal effect rating, CYPSE” value in the assay on CYPSE (Flatsedge) (0.0313 kg/ha) amounted to 0.0; with CYPSE (Flatsedge) (0.0625 kg/ha) it was 0.0; in the assay on CYPSE (Flatsedge) (0.1250 kg/ha), 3.0; in the assay on CYPSE (Flatsedge) (0.2500 kg/ha), 7.0. Besides, the “herbicidal effect rating, ECHORC” value in assay [2] (0.0313 kg/ha) was 6.0; in assay [2] (0.0625 kg/ha), 7.0; in assay [2] (0.1250 kg/ha), 9.0; in assay [2] (0.2500 kg/ha), 9.0. The “Preemergence herbicidal rating ORYSAT” value with ORYSAT (Rice, Tebonnet) (0.0156 kg/ha) turned out to be 1.0; with ORYSAT (Rice, Tebonnet) (0.0313 kg/ha) it was 1.0; with ORYSAT (Rice, Tebonnet) (0.0625 kg/ha) it was 3.0; in the assay on ORYSAT (Rice, Tebonnet) (0.1250 kg/ha), 5.0; in the assay with ORYSAT (Rice, Tebonnet) (0.2500 kg/ha) it was 7.0; with ORYSAT (Rice, Tebonnet) (0.5000 kg/ha), 9.0.
In the case of `CCOC(=O)CN1C(=O)C(CC(=O)O)SC1=Nc1cc(N2C(=O)CC(C(F)(F)F)CC2=O)c(F)cc1Cl` (stereo not shown) [Compound 170, 2-{{2-Chloro-5-[2,6-dioxo-4-(trifluoromethyl)-piperidino]-4-fluorophenyl}imino}-4-oxo-3,5-thiazolidinediacetic acid, 3-ethyl ester], the “Preemergence herbicidal rating CHEAL” value in assay [1] (0.0156 kg/ha), in assay [1] (0.0313 kg/ha), in assay [1] (0.0625 kg/ha), in assay [1] (0.1250 kg/ha) and in assay [1] (0.2500 kg/ha) was 9.0 in each case. Further, the “Herbicidal rating ECHCG” value in the assay on ECHCG (Barnyardgrass) (rate 0.0156 kg/ha), with ECHCG (Barnyardgrass) (rate 0.0313 kg/ha) and with ECHCG (Barnyardgrass) (rate 0.0625 kg/ha) was 1.0 each time. Moreover, the “herbicidal effect rating, ECHORC” value in assay [2] (0.0313 kg/ha), in assay [2] (0.0625 kg/ha), in assay [2] (0.1250 kg/ha) and in assay [2] (0.2500 kg/ha) was 9.0 each time. Besides, the “Preemergence herbicidal rating ORYSAT” value with ORYSAT (Rice, Tebonnet) (0.0156 kg/ha) worked out at 0.0; in the assay with ORYSAT (Rice, Tebonnet) (0.0313 kg/ha) it was 0.0; in the assay on ORYSAT (Rice, Tebonnet) (0.0625 kg/ha), 6.0; in the assay with ORYSAT (Rice, Tebonnet) (0.1250 kg/ha), 7.0; with ORYSAT (Rice, Tebonnet) (0.2500 kg/ha), 9.0.
